Data set [1] deals with dopaminergic TH-positive neurons injured with MPP+. The data set is described as follows: Neuroprotective effect on dopaminergic TH-positive neurons injured with MPP+ (primary mesencephalic culture). The note with it: MPP+ 4 μM, 48 h; for potency of retro-inverso peptides relative to their parent compounds and to full-length CDNF protein: stated for 'most cases'. Type of data set: cell-based, rat. On the procedure:
Neuroprotective effects of compounds 1-20 (SEQ ID NO:s 1-20, parent and retro-inverso) were tested in an in vitro model in which primary cultures of rat embryonic mesencephalic neurons were stressed with MPP+, the active metabolite of neurotoxin 1-methyl-4-phenyl-1,2,3,6-tetrahydropyridine (MPTP). MPP+ kills dopaminergic (TH-positive) neurons via a variety of toxic mechanisms, including mitochondrial dysfunction, generation of peroxynitrite, oxidative stress, ER stress and induction of apoptosis.
Rat dopaminergic neurons were cultured as described by Visanji et al., 2008. Briefly, the midbrains obtained from 15-day-old rat embryos (Janvier, France) were dissected, and the ventral portion of the mesencephalic flexure, a region of the developing brain rich in dopaminergic neurons, was used for the cell preparations. The midbrain cells were dissociated by trypsinization for 20 min at 37° C. […] The reaction was stopped by adding Dulbecco's modified Eagle's medium (DMEM) containing DNAase I grade II (0.5 mg/mL) and 10% of fetal calf serum (FCS). Cells were then mechanically dissociated by 3 passages through a 10 ml pipette. Cells were then centrifuged at 180×g for 10 min at +4° C. on a layer of BSA (3.5%) in L15 medium. The cell pellets was re-suspended in a defined culture serum-free medium consisting of Neurobasal (Invitrogen) supplemented with B27 (2%), L-glutamine (2 mM) and 2% of PS solution and 10 ng/ml of Brain-derived neurotrophic factor (BDNF) and 1 ng/mL of Glial-Derived Neurotrophic Factor (GDNF). […] The cells were seeded at a density of 40 000 cells/well in 96 well-plates (pre-coated with poly-L-lysine) and maintained in a humidified incubator at 37° C. in 5% CO2/95% air atmosphere. Half of the medium was changed every 2 days with fresh medium. On 96-wells plates, only 60 wells are used. To avoid any edge effect, the first and last lines and columns were not be used for culture and were filled with sterile water.
On day 6 of culture, CDNF or the compounds 1-20 (SEQ ID NO:s 1-20, parent and retro-inverso), were dissolved in culture medium and then pre-incubated with mesencephalic neurons for 4 hours before the MPP+ application. Four hours after the preincubation of the compounds, MPP+ was added to a final concentration of 4 μM, diluted in control medium still in presence of compounds for 48 h.
48 hours after intoxication, the cells were fixed by a solution of 4% paraformaldehyde in PBS, pH 7.3 for 20 min at room temperature. The cells were washed twice in PBS, and then permeabilized and non-specific sites were blocked with a solution of PBS containing 0.1% of saponin and 1% FCS for 15 min at room temperature. Next, the cells were incubated with (a) a monoclonal antibody anti-Tyrosine Hydroxylase (TH) produced in mouse at dilution of 1:1 0000 and with (b) a polyclonal antibody anti-alpha-synuclein (aSyn) antibody produced in rabbit at dilution of 1:400 in PBS containing 1% FCS, 0.1% saponin, for 2 h at room temperature.
48 hours after intoxication, the cell culture supernatant was removed, and the cells fixed by a solution of 4% paraformaldehyde in PBS, pH 7.3 for 20 min at room temperature. The cells were washed twice in PBS, and then permeabilized and non-specific sites were blocked with a solution of PBS containing 0.1% of saponin and 1% FCS for 15 min at room temperature. Then, the cells were incubated with a) a monoclonal Anti-Tyrosine Hydroxylase (TH) antibody produced in mouse at dilution of 1:10000 in PBS containing 1% FCS, 0.1% saponin, for 2 hours at room temperature, and b) a polyclonal anti-postsynaptic density protein-95 (PSD-95) antibody produced in rabbit at dilution of 1:200 in PBS containing 1% FCS, 0.1% saponin, for 2 h at room temperature. This antibody stains specifically synapses.
For each condition, pictures representing the whole well area were automatically acquired using ImageXpress (Molecular device) at 10× (20 pictures, for TH and a-syn) or at 40× magnification (60 pictures, for TH and PSD-95). […]

Data set [2] can be described thus: In vivo pharmacokinetics after intravenous administration to rats. The note with it: rat, 5 mg/kg intravenous bolus injection, male Sprague-Dawley rats, plasma; for clearance: read-out: CI. On the procedure:
Test compounds were intravenously (i.v.) administered to male Spraque-Dawley rats (about six weeks old, n=3 per compound) at 5 mg/kg. Blood samples were collected from jugular vein through implanted in-dwelling catheters (250 μl blood) into labelled polypropylene tubes containing anticoagulant (heparin) at 2 min, 5 min, 15 min, 30 min, 1 h, 2 h and 4 h after compound administration and held on wet ice for a maximum of 30 minutes. The blood samples were centrifuged for plasma separation (4° C., 21100 G, 5 min). Tolbutamide 500 ng/ml with 10% TFA in acetonitrile or in MeCN was used as an internal standard solution. The standard samples were prepared into rat plasma by spiking the matrix into concentrations 2-10 000 ng/ml of the analyte, respectively, and otherwise treated as the samples. To 50 μl aliquots of sample plasma was added 200 μl of internal standard. Samples were mixed (150 rpm, 15 min) and centrifugated (3000 rpm, 15 min). The analytical method was optimized for reaction monitoring chromatographic (peak shape & retention) shifts and mass spectrometric properties (ionization efficiency, MS/MS detection). Supernatants were is analyzed by UHPLC-TOF mass spectrometry using electrospray ionization. […]

In a further data set the test system is rat hepatocytes. In words: In vitro metabolic stability in rat hepatocytes. The note with it: 1 μM, 37° C., 0-60 min.
Data set [3] in a line: In vitro metabolic stability in rat plasma. Type of data set: in vitro ADME. As to conditions: 1 μM, 37° C., up to 120 min. On the procedure: Metabolic stability of the retro-inverso and native control peptides was studied using rat plasma over the time period of 120 min, with initial test concentration of 1 μM. Samples were analysed using LC/QE-orbitrap-MS. Calculated half-life is based on compound disappearance in rat plasma.
The incubation was terminated by acetonitrile. […] Stock solutions was prepared using 50% DMSO, and the compounds were spiked 1/100 to incubation to have final DMSO content of 0.5%. […] For analysis of compounds 13-14 and 19-20 stock solutions were prepared with PBS, and samples were analyzed by UHPLC-ToF mass spectrometry. Enalapril 1 μM was used as a disappearance rate control.

Data set [4] has as its target nucleotide-binding domain of GRP78 (GRP78-NBD). The data set is described as follows: Binding to GRP78-NBD Kd (μM). The source says:
Table printed on a drawing sheet, FIG. 5B
Head of the field: Binding to GRP78-NBD Kd (μM)
GRP78-NBD is shown in a to translucent surface model along with its cartoon trace. The Cys-Cys bond in compound 14 (SEQ ID NO: 14) is shown in sticks.
The binding affinities are obtained by microscale thermophoresis-based cell free assay.
GSK2606414 was used to inhibit PERK signaling and KIRA6 to inhibit IRE1alpha signaling. * p<0.05, ** p<0.01, *** p<0.001, **** p<0.0001 one-way ANOVA test with post-hoc Fisher's LSD test for pairwise comparison vs MPP+ negative control. #p<0.05, ##p<0.01, ###p<0.001, ####p<0.0001 one-way ANOVA test with post-hoc Fisher's LSD test for pairwise comparison between effect of compound alone and its combination with UPR signal inhibitor.
Where the first naming reader finds the target: head: Binding to GRP78-NBD Kd (μM)

In another data set the test system is human hepatocytes. The data set is described as follows: In vitro metabolic stability in human hepatocytes. As to conditions: 1 μM, 37° C., 0-60 min.
Data set [5] has as its system 3D in vitro model of blood brain barrier. The data set is described as follows: Permeation in a 3D in vitro model of blood-brain barrier. The note with it: 500 nM, 2 h.

Positions of bridges follow the written chain, without caps; N, C: chain ends. Non-standard residues stand in square brackets, D forms with d. Residues, ends and D or L forms follow the SMILES beside them. No end group written: not given here.

In the case of “CDNF: full-length cerebral dopamine neurotrophic factor protein (rhCDNF), unconventional neurotrophic factor”, in data set [1], the “alpha-synuclein (aSyn) aggregates / inclusions in TH-positive neurons” value is given as “reducing accumulation”; the “protection of TH-positive neurons, their neurites and synapses from MPP+ toxicity” value is on record as “neuroprotective”.

Consider “TKEACAGRCEEG ([dT][dK][dE][dA][dC][dA]G[dR][dC][dE][dE]G; disulfide 5-9) [Compound 10]”, for which the “potency of retro-inverso peptides relative to their parent compounds and to full-length CDNF protein” value in data set [1] is on record as “comparable”.

In data set [2], `C[C@@H](NC(=O)[C@@H](CCC(=O)O)NC(=O)[C@H](N)CCCCN)C(=O)N[C@@H]1CSSC[C@H](C(=O)N[C@H](CCC(=O)O)C(=O)N[C@H](CCC(=O)O)C(=O)O)NC(=O)[C@@H](CCCNC(=N)N)NC(=O)[C@@H](C)NC1=O` [Compound 14, KEACARCEE] (H-[dK][dE][dA][dC][dA][dR][dC][dE][dE]-OH; disulfide 4-7; N-terminus and C-terminus assumed) gave an AUC(0-inf) of 7500 ng·h/mL, an MRT of 19.2 min, a Vd of 0.21 L/kg and a half-life of 18.4 min. Further, the clearance in data set [2] was 11.4 mL/min/kg. The “stability in rat hepatocytes as compared to parent compound” value in the data set with rat hepatocytes was “significantly improved stability”. Besides, the “stability in rat plasma as compared to parent compound” value in data set [3] is recorded as “significantly improved stability”.

With “EACARCEE ([dE][dA][dC][dA][dR][dC][dE][dE]; disulfide 3-6) [Compound 18] [listing 1 of 2 here]”, the “potency of retro-inverso peptides relative to their parent compounds and to full-length CDNF protein” value in data set [1] was “comparable”.

As to ETCKGCAE (disulfide 3-6) [Compound 19], the Kd in data set [4] is 14.3 µM.

“KEACARCEE ([dK][dE][dA][dC][dA][dR][dC][dE][dE]; disulfide 4-7) [Compound 14]”: in data set [4], the Kd was 0.68 µM.

For KEACARCEEGWSHLIQKLEAVRM [Compound 2], the “potency of retro-inverso peptides relative to their parent compounds and to full-length CDNF protein” value in data set [1] is given as “comparable”.

For “SKEACGGKCTEG ([dS][dK][dE][dA][dC]GG[dK][dC][dT][dE]G; disulfide 5-9) [Compound 12]”, the Kd in data set [4] was 6.2 µM.

In the case of `C[C@H](O)[C@@H](N)C(=O)N[C@H](CCCCN)C(=O)N[C@H](CCC(=O)O)C(=O)N[C@H](C)C(=O)N[C@@H]1CSSC[C@H](C(=O)N[C@H](CCC(=O)O)C(=O)N[C@H](CCC(=O)O)C(=O)NCC(=O)O)NC(=O)[C@@H](CCCNC(=N)N)NC(=O)[C@@H](C)NC1=O` [Compound 6, TKEACARCEEG], in the data set on human hepatocytes, the “stability in human hepatocytes as compared to parent compound” value was “significantly improved stability”. Besides, the “potency of retro-inverso peptides relative to their parent compounds and to full-length CDNF protein” value in data set [1] is listed as “comparable”. Also, the Kd in data set [4] stood at 3.86 µM. In data set [2], this molecule showed an AUC(0-inf) of 15500 ng·h/mL, an MRT of 29.4 min, a Vd of 0.16 L/kg and a half-life of 24.5 min. For the same molecule, in data set [2], the clearance stood at 5.69 mL/min/kg. In addition, the “ability to pass through the in vitro blood-brain barrier as compared to parent compound” value in data set [5] was “improved ability to pass”. The “stability in rat hepatocytes as compared to parent compound” value in the data set on rat hepatocytes is on record as “significantly improved stability”.

Turning to “KEACGKCTE ([dK][dE][dA][dC]G[dK][dC][dT][dE]; disulfide 4-7) [Compound 16]”, the “potency of retro-inverso peptides relative to their parent compounds and to full-length CDNF protein” value in data set [1] is given as “comparable”.

For “KEACGKCTEGWDDLIKKLEKVRL ([dK][dE][dA][dC]G[dK][dC][dT][dE]G[dW][dD][dD][dL][dI][dK][dK][dL][dE][dK][dV][dR][dL]; disulfide 4-7) [Compound 4]”, in the data set with human hepatocytes, the “stability in human hepatocytes as compared to parent compound” value is given as “significantly improved stability”. Moreover, the “potency of retro-inverso peptides relative to their parent compounds and to full-length CDNF protein” value in data set [1] is reported as “comparable”. Also, the “ability to pass through the in vitro blood-brain barrier as compared to parent compound” value in data set [5] is given as “improved ability to pass”. In addition, in the data set with rat hepatocytes, the “stability in rat hepatocytes as compared to parent compound” value is “significantly improved stability”.

Consider EECRACAE (disulfide 3-6) [Compound 17], for which the Kd in data set [4] worked out at 0.3 µM.

`C[C@H](O)[C@@H](NC(=O)[C@H]1CSSC[C@@H](NC(=O)[C@@H](C)NC(=O)[C@@H](CCC(=O)O)NC(=O)[C@@H](CCCCN)NC(=O)[C@H](N)CO)C(=O)NCC(=O)NCC(=O)N[C@H](CCCCN)C(=O)N1)C(=O)N[C@H](CCC(=O)O)C(=O)NCC(=O)O` [Compound 12, SKEACGGKCTEG] (H-[dS][dK][dE][dA][dC]GG[dK][dC][dT][dE]G-OH; disulfide 5-9; N-terminus and C-terminus assumed): in data set [2], the AUC(0-inf) is 4310 ng·h/mL, the MRT was 22.9 min, the Vd turned out to be 0.45 L/kg and the half-life amounted to 19.7 min. Further, in data set [2], the clearance was found to be 19.5 mL/min/kg. For the same molecule, the “ability to pass through the in vitro blood-brain barrier as compared to parent compound” value in data set [5] is “improved ability to pass”.

As for “GEECRACAEKT (disulfide 4-7) [Compound 5]”, in data set [4], the Kd came to 3.21 µM.

As for “EACARCEE ([dE][dA][dC][dA][dR][dC][dE][dE]; disulfide 3-6) [Compound 18] [listing 2 of 2 here]”, the Kd in data set [4] was 1.23 µM.

(Values after patent US20230391842A1, “RETRO-INVERSO PEPTIDES” (Herantis Pharma OYJ, priority 2019, published 2023).)
